Results taken from patent EP4745118A1, “HYDROXAMIC ACID COMPOUND OR PHARMACEUTICALLY ACCEPTABLE SALT THEREOF, AND USE THEREOF AND PREPARATION METHOD THEREFOR” (priority 2023, dated 2025).
≈ marks a conversion by molar mass, not a printed value. Where two headings read alike, the source gives them in different places.

Key:
[1] = target: T1, recombinant Escherichia coli LpxC enzyme (rLpxC) (Escherichia coli, UniProt P0A725); assay: Inhibition of recombinant Escherichia coli LpxC enzyme activity (LC-MS); assay type: biochemical; settings: 37°C, 30 minutes reaction, substrate UDP-3-O (R-hydroxytetradecanoyl)-N-acetylglucosamine
T1 sequence (P0A725 1-305): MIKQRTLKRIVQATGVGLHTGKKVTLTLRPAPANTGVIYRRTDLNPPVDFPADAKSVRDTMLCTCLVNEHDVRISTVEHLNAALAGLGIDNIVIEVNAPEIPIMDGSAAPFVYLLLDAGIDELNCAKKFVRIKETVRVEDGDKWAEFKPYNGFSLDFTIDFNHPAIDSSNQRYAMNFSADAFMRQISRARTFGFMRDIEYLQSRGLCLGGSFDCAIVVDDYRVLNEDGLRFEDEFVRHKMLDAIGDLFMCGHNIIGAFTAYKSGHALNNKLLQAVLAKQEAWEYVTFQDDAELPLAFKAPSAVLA
Experimental: Preparation of recombinant Escherichia coli LpxC enzyme (rLpxC). 2 µL of recombinant Escherichia coli LpxC enzyme (6.29 mg/mL) was added to 18 µL of distilled water. After thorough mixing, 2 µL of this mixture was added to 1042.4 µL of distilled water and mixed well to prepare a 36 nM working solution.
The substrate was UDP-3-O (R-hydroxytetradecanoyl)-N-acetylglucosamine, with UDP-α-D-N-Acetylglucosamine Disodium Salt as the internal standard. Mobile phase A: 90% water-10% acetonitrile containing 10 mM ammonium acetate; B: acetonitrile.
Reaction system: Corresponding solutions were prepared as per the table below, and placed in a 37°C metal bath, and mixed at 300 rpm for 10 minutes. After mixing for 10 minutes, 10 µl of 250 µM substrate was added to each group to initiate the reaction, and placed in a 37°C metal bath and reacted at 300 rpm for 30 minutes.
Termination solution: 1.1 µL of 1 mM internal standard was added to 2 mL of acetonitrile. 1.5 mL of EP tubes were taken and 100 µL of termination solution was added to each EP tube. The concentration of the internal standard in the final 350 µL system is 100 ng/mL.
Detection: 10 µL of reaction solution was added to 100 µL of the termination solution in an EP tube, mixed thoroughly, and then 240 µL of distilled water was added and mixed well, centrifuged at 14,000 rpm for 5 minutes. 70 µL of supernatant was transferred to an LC-MS vial and API 6500 Qtrap LC-MS system was used to measure substrates and metabolites. The median inhibition concentrations (IC50) of the four optical isomers and ACHN-975 against rLpxC enzyme were calculated. Table 4 Inhibitory activity of 4 optical isomers and control drug against recombinant Escherichia coli LpxC enzyme

Proteus vulgaris = assay: In vitro antibacterial activity, agar dilution method (MIC); assay type: cell-based
Experimental: (§1) According to the relevant operating procedures of the Clinical Laboratory Standards Institute (CLSI) in the United States, an antimicrobial susceptibility testing was conducted using the agar dilution method. […]. The agar was allowed to solidify and set aside for later use.
(§2) The test bacteria were propagated in broth and adjusted to a turbidity of 0.5 McFarland (approximately 1-2 × 10^8 CFU/mL) using a turbidimeter before inoculation. The 0.5 McFarland bacterial solution was then diluted 10-fold in broth (approximately 1-2 × 10^7 CFU/mL). A multipoint inoculator was used to inoculate the above bacterial solution onto a series of plates containing different concentrations of drugs (with an inoculation amount of approximately 10^4 CFU per inoculation site). After incubation at a constant temperature of 35°C for 18 hours, results were observed. The minimum concentration of drugs contained in sterile growth plates was determined as the Minimal Inhibitory Concentration (MIC).

Escherichia coli = assay: as above; assay type: cell-based
Experimental: as §1, §2

[2] = system: Escherichia coli ATCC BAA2469 (CRE, NDM-1-producing); assay: In vivo antibacterial activity, intraperitoneal infection in mice (survival over 7 days); settings: for effective dose of in vivo antibacterial activity: mice with intraperitoneal infection by Escherichia coli ATCC BAA2469, intravenous; for Animal survival rate / Number of surviving animals: mice, one intravenous administration 1 hour post-infection, 7 days; for Number of surviving animals: 5 animals per group
Experimental: Mice were randomly grouped based on body weight, with 5 mice in each group, regardless of gender. The infectious bacteria was Escherichia coli ATCC BAA2469 (CRE, NDM-1-producing). The test bacterial solution was diluted with 5% high-activity dry yeast. Mice received intraperitoneal injection of 0.5 mL of 100% minimum lethal dose (100% MLD) bacterial solution. One intravenous administration was given at 1 hour post-infection at a dose volume of 10 mL/kg. Animal survival numbers were observed over 7 days, and survival rates were calculated.

Vero cells = assay: Vero cytotoxicity (CCK-8); assay type: cell-based
Experimental: All liquid was transferred to a 15 mL centrifuge tube and centrifuged at 800 rpm for 5 min. […] A cell counter was used to measure cell density. Cells were inoculated at 100 µL and a density of 3 × 10^5/mL into a 96-well plate, with 6 replicates per group, and incubated at 37°C for 4 hours to allow cells to adhere to the wall. The compound was twofold continuously diluted with PBS, and 10 µL of the compound with the corresponding concentration was added to the 96-well plate, and shaken and mixed well on a shaker, and then incubated at 37°C for 24 hours. 10 µL of CCK-8 reagent was added to the 96-well plate, mixed thoroughly on a shaker, and incubated at 37°C for 2 hours. A microplate reader was used to measure the absorbance at 450 nm wavelength, and the inhibition rate of the compound on Vero cells was calculated. Table 5 Vero cytotoxicity of 4 optical isomers and control drug

ICR strain mice = assay: Acute toxicity in mice, single tail vein injection; assay type: in vivo; settings: one week
Experimental: Healthy ICR strain mice weighing 20-21 g were taken for the experiment, randomly divided into groups of 3 mice per group, regardless of gender. Each compound was administered via a single tail vein injection at a volume of 20 mL/kg. Animal responses were observed immediately postadministration and monitored for one week. The number of animal deaths was recorded and mortality rates calculated.

Enterobacter cloacae = assay: In vitro antibacterial activity, agar dilution method (MIC); assay type: cell-based
Experimental: According to the relevant operating procedures of the Clinical Laboratory Standards Institute (CLSI) in the United States, an antimicrobial susceptibility testing was conducted using the agar dilution method. […] The agar was allowed to solidify and set aside for later use.
as §2

[3] = Proteus vulgaris, ATCC29905, 18 h
[4] = Escherichia coli, 18 h, Escherichia coli 13-43 (mcr-1), agar dilution, 35°C
[5] = Escherichia coli, 18 h, Escherichia coli 17-R28 (CRE, NDM-1-producing), agar dilution, 35°C
[6] = Escherichia coli, ATCC2469, 18 h, Escherichia coli ATCC 2469 (CRE, NDM-1-producing), agar dilution, 35°C, 18 hours
[7] = Escherichia coli, ATCC35218, 18 h, Escherichia coli ATCC 35218 (ESBLs-producing), agar dilution, 35°C, 18 hours, read-out: MIC
[8] = Chlorocebus sabaeus, Vero, 24 h
[9] = ATCC29905, Proteus vulgaris ATCC 29905, agar dilution, 35°C, 18 hours, read-out: MIC
[10] = Escherichia coli, 18 h, Escherichia coli 13-43 (mcr-1), agar dilution, 35°C, 18 hours, read-out: MIC
[11] = Escherichia coli, 18 h, Escherichia coli 17-R28 (CRE, NDM-1-producing), agar dilution, 35°C, 18 hours, read-out: MIC
[12] = Escherichia coli, ATCC2469, 18 h, Escherichia coli ATCC 2469 (CRE, NDM-1-producing), agar dilution, 35°C, 18 hours, read-out: MIC
[13] = Chlorocebus sabaeus, Vero cells, 24 hours incubation, CCK-8, read-out: IC50
[14] = Enterobacter cloacae CDC1000654 (NDM-1-producing), agar dilution, 35°C, 18 hours, read-out: MIC

| SMILES | IC50 [1] [nM] | effective dose of in vivo antibacterial activity [2] | Animal survival rate ([2]; dose 0.35 mg/kg) [%] | Number of surviving animals ([2]; dose 0.35 mg/kg) [individuals] | Animal survival rate ([2]; dose 1.4 mg/kg) [%] | Number of surviving animals ([2]; dose 1.4 mg/kg) [individuals] | Mortality rate (ICR strain mice; dose 100 mg/kg) [%] | Number of deaths (ICR strain mice; dose 100 mg/kg) [individuals] | Mortality rate (ICR strain mice; dose 150 mg/kg) [%] | Number of deaths (ICR strain mice; dose 150 mg/kg) [individuals] | MIC (Proteus vulgaris; [3]) [µg/mL] | MIC (Escherichia coli; [4]) [µg/mL] | MIC (Escherichia coli; [5]) [µg/mL] | MIC (Escherichia coli; [6]) [µg/mL] | MIC (Escherichia coli; [7]) [µg/mL] | Animal survival rate ([2]; dose 1.5 mg/kg) [%] | Number of surviving animals ([2]; dose 1.5 mg/kg) [individuals] | Animal survival rate ([2]; dose 3 mg/kg) [%] | Mortality rate (ICR strain mice; dose 200 mg/kg) [%] | Number of deaths (ICR strain mice; dose 200 mg/kg) [individuals] | also measured |
| --- | --- | --- | --- | --- | --- | --- | --- | --- | --- | --- | --- | --- | --- | --- | --- | --- | --- | --- | --- | --- | --- |
| COCC1CC1C#CC#Cc1ccc(C(=O)NC(C(=O)NO)C(C)(C)N)cc1 (mixture of isomers) [Ia/Ib racemate] | 1.03 | below 1.5 mg/kg | 0 | 0 | 40 | 2 | 0 | 0 | 100 | 3 |  |  |  |  |  |  |  |  |  |  | MIC (Proteus vulgaris; Proteus vulgaris ATCC 29905, agar dilution, 35°C, 18 hours): 0.25 µg/mL; MIC (Escherichia coli; Escherichia coli 13-43 (mcr-1), agar dilution, 35°C, 18 hours): 0.12 µg/mL; MIC (Escherichia coli; Escherichia coli 17-R28 (CRE, NDM-1-producing), agar dilution, 35°C, 18 hours): 0.12 µg/mL; MIC (Escherichia coli; Escherichia coli ATCC 2469 (CRE, NDM-1-producing), agar dilution, 35°C, 18 hours): 0.5 µg/mL; MIC (Escherichia coli; Escherichia coli ATCC 35218 (ESBLs-producing), agar dilution, 35°C, 18 hours): 0.25 µg/mL; Animal survival rate ([2]; dose 0.7 mg/kg): 0%; Number of surviving animals ([2]; dose 0.7 mg/kg): 0 individuals; IC50 (Vero cells; Vero cells, 24 hours incubation, CCK-8, read-out: IC50): > 128000 nM; MIC (Enterobacter cloacae; Enterobacter cloacae CDC1000654 (NDM-1-producing), agar dilution, 35°C, 18 hours): 2 µg/mL |
| CC(C)(N)[C@H](NC(=O)c1ccc(C#CC#C[C@@H]2C[C@H]2CO)cc1)C(=O)NO [ACHN-975] | 1.07 | > 1.5 mg/kg |  |  |  |  | 67 | 2 | 100 | 3 | 0.06 (≈ 0.162 µM) | 0.5 (≈ 1.35 µM) | 0.5 (≈ 1.35 µM) | 0.5 (≈ 1.35 µM) | 0.5 (≈ 1.35 µM) | 0 | 0 | 60 |  |  | Number of surviving animals ([2]; dose 3 mg/kg): 3 individuals; Animal survival rate ([2]; dose 6 mg/kg): 100%; Number of surviving animals ([2]; dose 6 mg/kg): 5 individuals; IC50 (Vero cells; [8]): > 128000 nM; Mortality rate (ICR strain mice; dose 50 mg/kg): 0%; Number of deaths (ICR strain mice; dose 50 mg/kg): 0 individuals; MIC (Enterobacter cloacae; Enterobacter cloacae, 18 h): 4 µg/mL (≈ 10.8 µM) |
| CO[C@H]1CCC[C@@H]1C#CC#Cc1ccc(C(=O)N[C@H](C(=O)NO)C(C)(C)N)cc1 [A] | 4.68 | > 3 mg/kg |  |  |  |  |  |  | 0 | 0 |  |  |  |  | 0.25 (≈ 0.629 µM) | 0 | 0 | 0 | 100 | 3 | MIC (Proteus vulgaris; [9]): 0.5 µg/mL (≈ 1.26 µM); MIC (Escherichia coli; [10]): 1 µg/mL (≈ 2.52 µM); MIC (Escherichia coli; [11]): 0.25 µg/mL (≈ 0.629 µM); MIC (Escherichia coli; [12]): 0.12 µg/mL (≈ 0.302 µM); Number of surviving animals ([2]; dose 3 mg/kg): 0 individuals; Animal survival rate ([2]; dose 6 mg/kg): 20%; Number of surviving animals ([2]; dose 6 mg/kg): 1 individuals; IC50 (Vero cells; [13]): > 64000 nM; MIC (Enterobacter cloacae; [14]): 4 µg/mL (≈ 10.1 µM) |
| COC[C@@H]1C[C@H]1C#CC#Cc1ccc(C(=O)N[C@H](C(=O)NO)C(C)(C)N)cc1 [Ia, N-(S)-3-amino-1-hydroxyamino-3-methyl-1-oxobutan-2-yl-4-[[(1R,2R)-2-(methoxymethylene)cyclopropyl]but-1,3-diynyl]benzamide] | 1.07 | below 1.5 mg/kg | 0 | 0 | 80 | 4 |  |  | 0 | 0 |  |  |  |  | 0.12 (≈ 0.313 µM) |  |  |  | 100 | 3 | MIC (Proteus vulgaris; [9]): 0.12 µg/mL (≈ 0.313 µM); MIC (Escherichia coli; [10]): 0.12 µg/mL (≈ 0.313 µM); MIC (Escherichia coli; [11]): 0.12 µg/mL (≈ 0.313 µM); MIC (Escherichia coli; [12]): 0.12 µg/mL (≈ 0.313 µM); IC50 (Vero cells; [13]): > 128000 nM; MIC (Enterobacter cloacae; [14]): 1 µg/mL (≈ 2.61 µM) |
| COC[C@H]1C[C@@H]1C#CC#Cc1ccc(C(=O)N[C@H](C(=O)NO)C(C)(C)N)cc1 [Ib, N-(S)-3-amino-1-hydroxyamino-3-methyl-1-oxobutan-2-yl-4-[[(1S,2S)-2-(methoxymethylene)cyclopropyl]but-1,3-diynyl]benzamide] | 0.857 | below 1.5 mg/kg |  |  | 60 |  |  |  | 0 | 0 | 0.12 (≈ 0.313 µM) | 0.5 (≈ 1.3 µM) | 0.25 (≈ 0.652 µM) | 0.25 (≈ 0.652 µM) |  |  |  |  | 100 | 3 | MIC (Escherichia coli; Escherichia coli, ATCC35218, 18 h): 0.25 µg/mL (≈ 0.652 µM); IC50 (Vero cells; [8]): > 128000 nM; MIC (Enterobacter cloacae; Enterobacter cloacae, 18 h): 2 µg/mL (≈ 5.22 µM) |
